Results: patent US11040028B2, “Penicinotam derivative, preparation method and use thereof” (OCEAN UNIVERSITY OF CHINA, priority 2017, dated 2021)

Key:
Format in all cases: cell-based
[1] = tested on: human hepatic stellate cells LX-2; assay: Anti-fibrosis activity test: inhibition of proliferation of human hepatic stellate cells LX-2 (CCK-8); conditions: Homo sapiens, 48 h, human hepatic stellate cells LX-2, CCK-8, 48 hours
In short: (§1)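 Using CCK-8 colorimetry (450 nm), the study assessed growth inhibition after 48 h compound exposure; plating density was 2×10^4 cells/mL with 24 h attachment beforehand. IC50 was calculated from (1−Ai/Ao)×100%.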

[2] = tested on: human fibrosarcoma cells HT-1080; assay: Anti-fibrosis activity test: inhibition of proliferation of human fibrosarcoma cells HT-1080 (CCK-8); conditions: Homo sapiens, HT-1080, 48 h, human fibrosarcoma cells HT-1080, CCK-8, 48 hours
In short: as §1

BHK-21 cells = assay: Anti-fibrosis activity test: inhibition of BHK-21 cell proliferation (CCK-8); conditions: Mesocricetus auratus, BHK-21, 48 h, CCK-8, 48 hours after administration
In short: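 Proliferation of BHK-21 cells is measured by CCK-8 at 450 nm following 48 h compound exposure at several concentrations. Inhibition is expressed relative to blank control and IC50 is computed from it.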

NF-κB = assay: Immunological activity test: inhibition of NF-κB activity; conditions: initial concentration of 30 μM; a/b isomers given as first/second symbol; read-out: IC50 (μM), inhibitory activity against NF-κB
Source text: Main references for immunological activity test of the compounds of the present application includes: Vogl, S.; Atanasov, A. G.; Binder, M.; Bulusu, M.; Zehl, M.; Fakhrudin, N.; Heiss, E. H.; Picker, P.; Wawrosch, C.; Saukel, J.; Reznicek, G.; Urban, E.; Bochkov, V.; Dirsch, V. M.; Kopp, B. J. Evid-Based Complementary Alern. Med. 2013, ID 395316. Commercially available parthenolide was utilized as a positive control.
The ability of the compounds of the present application to inhibit NF-κB activity was tested at an initial concentration of 30 μM.
The assay data for the compounds of the present application were further analyzed to determine their IC50 values.

[3] = tested on: human dermal fibroblasts CCC-ESF-1; assay: Anti-fibrosis activity test: inhibition of proliferation of human dermal fibroblasts CCC-ESF-1 (CCK-8); conditions: Fibroblast; human dermal fibroblasts CCC-ESF-1, CCK-8, 48 hours
In short: as §1

[4] = tested on: human embryonic lung fibroblast IMR-90; assay: Anti-fibrosis activity test: inhibition of proliferation of human embryonic lung fibroblast IMR-90 (CCK-8); conditions: human embryonic lung fibroblast IMR-90, CCK-8, 48 hours
In short: as §1

[5] = tested on: human lung fibroblasts HFL1; assay: Anti-fibrosis activity test: inhibition of proliferation of human lung fibroblasts HFL1 (CCK-8); conditions: Homo sapiens, HFL1, 48 h, human lung fibroblasts HFL1, CCK-8, 48 hours
In short: as §1

[6] = tested on: cardiac fibroblast RAT-iCell-C002; assay: Anti-fibrosis activity test: inhibition of proliferation of cardiac fibroblast RAT-iCell-C002 (CCK-8); conditions: Cardiac fibroblast, 48 h, cardiac fibroblast RAT-iCell-C002, CCK-8, 48 hours
In short: as §1

Measured: IC50

O=C1c2c(n(-c3ccc(Cl)cc3)c3ccccc3c2=O)-c2cccn21 [Compound 34a, 4-(4-Chlorophenyl)-9H-pyrrolizino[1,2-b]quinoline-9,10(4H)-dione]
< 0.05 mM: BHK-21 cells
5 to 20 mM: [3]
0.1 to 1 µM: NF-κB
0.05 to 5 mM: all other assays above

O=C1c2c(n(Cc3ccccc3Cl)c3cc(C(F)(F)F)ccc3c2=O)-c2cccn21 [Compound 546a, 4-(2-Chlorobenzyl)-6-(trifluoromethyl)-9H-pyrrolizino[1,2-b]quinoline-9,10(4H)-dione]
1 to 10 µM: NF-κB
< 0.05 mM: BHK-21 cells
0.05 to 5 mM: all other assays above

N#Cc1ccc2c(c1)c(=O)c1c(n2Cc2ccc(Cl)cc2)-c2cccn2C1=O [Compound 625a, 4-(4-Chlorobenzyl)-9,10-dioxo-4,10-dihydro-9H-pyrrolizino[1,2-b]quinoline-7-carbonitrile]
1 to 10 µM: NF-κB
0.05 to 5 mM: all other assays above

N#Cc1ccc2nc3c(c(OCc4ccc(-c5ccccc5)cc4)c2c1)C(=O)n1cccc1-3 [Compound 628b, 9-([1,1′-biphenyl]-4-ylmethoxy)-10-oxo-10H-pyrrolizino[1,2-b]quinoline-7-carbonitrile]
1 to 10 µM: NF-κB
0.05 to 5 mM: all other assays above

CC(C)CCn1c2c(c(=O)c3ccccc31)C(=O)n1cccc1-2 [Compound 8a, 4-Isopentyl-9H-pyrrolizino[1,2-b]quinoline-9,10(4H)-dione]
5 to 20 mM: BHK-21 cells | [4]
10 to 50 µM: NF-κB
0.05 to 5 mM: all other assays above

O=C1c2c(n(Cc3cccc(Cl)c3)c3cc(C(F)(F)F)ccc3c2=O)-c2cccn21 [Compound 545a, 4-(3-Chlorobenzyl)-6-(trifluoromethyl)-9H-pyrrolizino[1,2-b]quinoline-9,10(4H)-dione]
5 to 20 mM: [2]
1 to 10 µM: NF-κB
0.05 to 5 mM: all other assays above

O=C1c2c(nc3ccc(F)cc3c2OCc2cc(C(F)(F)F)cc(C(F)(F)F)c2)-c2cccn21 [Compound 623b, 9-((3,5-bis(trifluoromethyl)benzyl)oxy)-7-fluoro-10H-pyrrolizino[1,2-b]quinolin-10-one]
1 to 10 µM: NF-κB
0.05 to 5 mM: all other assays above

O=C1c2c(nc3ccccc3c2Oc2ccc(Cl)cc2)-c2cccn21 [Compound 34b, 9-(4-chlorophenoxy)-10H-pyrrolizino[1,2-b]quinolin-10-one]
1 to 10 µM: NF-κB
< 0.05 mM: [3]
0.05 to 5 mM: all other assays above

O=C1c2c(nc3ccc(F)cc3c2OCc2ccc(Cl)cc2F)-c2cccn21 [Compound 621b, 9-((4-chloro-2-fluorobenzyl)oxy)-7-fluoro-10H-pyrrolizino[1,2-b]quinolin-10-one]
1 to 10 µM: NF-κB
0.05 to 5 mM: all other assays above

O=C1c2c(n(Cc3ccc(Cl)cc3F)c3ccc(F)cc3c2=O)-c2cccn21 [Compound 621a, 4-(4-Chloro-2-fluorobenzyl)-7-fluoro-9H-pyrrolizino[1,2-b]quinoline-9,10(4H)-dione]
1 to 10 µM: NF-κB
0.05 to 5 mM: all other assays above
